Results published in patent US9119845B2, “Method for the treatment of neurological disorders by enhancing the activity of beta-glucocerebrosidase” (Amicus Therapeautics, Inc., priority 2006, dated 2015).
Counter-ions that a name gives are not always drawn. Like-named read-outs stand apart in the source and are kept apart here.

Experiments:
GCase [1] = molecular target: T1, GCase (Homo sapiens (Human), UniProt P04062); assay: Phase I multiple-dose study: GCase enzymatic activity in healthy volunteers; format: in vivo; conditions: dose-related, during treatment period, FIG. 2
T1 sequence (P04062 40-536): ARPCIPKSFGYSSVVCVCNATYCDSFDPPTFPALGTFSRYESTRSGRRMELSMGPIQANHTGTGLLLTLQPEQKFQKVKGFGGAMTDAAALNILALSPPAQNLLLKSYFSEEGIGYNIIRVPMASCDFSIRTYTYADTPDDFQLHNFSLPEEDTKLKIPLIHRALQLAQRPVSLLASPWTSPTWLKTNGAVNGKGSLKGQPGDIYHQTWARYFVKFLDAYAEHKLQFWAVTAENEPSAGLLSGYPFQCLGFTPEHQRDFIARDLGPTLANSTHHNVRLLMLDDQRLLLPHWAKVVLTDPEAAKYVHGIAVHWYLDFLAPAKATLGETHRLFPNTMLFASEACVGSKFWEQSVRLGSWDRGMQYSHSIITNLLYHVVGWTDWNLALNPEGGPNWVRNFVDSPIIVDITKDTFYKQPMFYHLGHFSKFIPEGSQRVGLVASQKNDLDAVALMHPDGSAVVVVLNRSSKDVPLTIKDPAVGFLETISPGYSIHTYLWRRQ
Protocol: (§1) In a first-in-human single ascending dose study (1a), doses of 8, 25, 75, 150 (two cohorts), and 300 mg were administered (6 active, 2 placebo in each cohort). In a multiple ascending dose study (1b), doses of 25, 75, and 225 mg were administered daily for seven days (6 active, 2 placebo in each cohort). In both studies, of the eight subjects in each group; six were randomized to receive IFG tartrate, and two subjects received placebo. Subjects were confined from the evening of day-1 until 24 hrs after completion of dosing. In the phase 1a study subjects returned at 48 hrs (PK sampling) and 7 days (safety follow-up) following dosing. In the phase 1b study subjects returned at 48 h (PD sampling), 7 days (PD sampling and safety follow-up), and 14 days (PD sampling) following the last dose
(§2) GCase activity was determined pre-dose on days 1, 3, 5, 7, 9, 14, and 21. Blood samples were cooled in an ice bath and centrifuged under refrigeration as soon as possible. Plasma samples were divided into two aliquots and stored at […] pending assay. At the end of the study, all samples were transferred to MDS Pharma Services Analytical Laboratories (Lincoln) for analysis.

[2] = Phase I studies in healthy volunteers: pharmacokinetics of oral IFG tartrate; format: in vivo, human; conditions: for half-life: both sexes, human, plasma
Protocol: as §1
Subjects were healthy male and female volunteers between 19 and 55 years of age (inclusive) consisting of members of the community at large.
Blood samples (10 mL each) were collected in blood collection tubes containing EDTA before dosing was determined at regular intervals for the phas 1a during 48 hr following dosing. In the phase 1b study a full IFG tartrate pharmacokinetic profile was determined for 24 hr following the first dose, Cmin values were obtained pre-dose on day 6 and 7, and another full profile was determined for 24 hr following the final, day 7, dose.
as §2

wild-type GCase = wild-type GCase (Mus musculus (Mouse), UniProt P17439); assay: In vivo GCase activity in normal C57BL6 mice upon treatment with IFG
Sequence of wild-type GCase (P17439 20-515): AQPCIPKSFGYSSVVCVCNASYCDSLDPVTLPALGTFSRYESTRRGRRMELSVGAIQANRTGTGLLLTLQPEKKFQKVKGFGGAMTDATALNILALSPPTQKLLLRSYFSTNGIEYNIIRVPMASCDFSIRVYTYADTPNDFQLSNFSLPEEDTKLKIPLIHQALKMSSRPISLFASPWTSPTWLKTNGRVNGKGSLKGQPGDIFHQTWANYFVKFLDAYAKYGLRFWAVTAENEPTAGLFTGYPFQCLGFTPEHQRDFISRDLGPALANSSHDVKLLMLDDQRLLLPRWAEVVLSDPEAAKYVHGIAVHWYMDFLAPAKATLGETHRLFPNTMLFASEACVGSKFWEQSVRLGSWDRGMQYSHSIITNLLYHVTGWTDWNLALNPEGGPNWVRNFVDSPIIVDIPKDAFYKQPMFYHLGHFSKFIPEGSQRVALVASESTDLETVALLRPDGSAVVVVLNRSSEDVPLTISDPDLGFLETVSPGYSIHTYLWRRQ
Protocol: This Example provides information on the effects of isofagomine, a GCase-specific chaperone on mice. IFG were administered to the mice at 200 mg/kg/day; organs and plasma were collected 4 weeks after initiation of the study. Ten male C57BL6 (25 g) mice per group were used. The drug was be given in the drinking water, therefore water consumption was monitored daily.
In the control group (0 mg/kg/day), the mice were dosed daily in the drinking water (no drug) and divided into two groups. Ten animals were euthanized after 4 weeks of treatment, blood was collected from the descending aorta or vena cava, and tissues were harvested and then necropsied.
In the test group, 10 mice were dosed daily in the drinking water with an administration aim of 200 mg/kg/day.
The blood samples were drawn into lithium heparin and spun for plasma. After bleeding, the spleen, lung, brain and liver were removed and placed into vials. The vials were put into dry ice for rapid freezing. The tissues and plasma were then analyzed for tissue levels of GCase.
Small portions of tissue were removed and added to 500 μl lysis buffer (20 mM sodium citrate and 40 mM disodium hydrogen phosphate, pH 4.0, including 0.1% Triton X-100). Tissues were then homogenized using a microhomogenizer for a brief time, followed by centrifugation at 10,000 rpm for 10 minutes at 4° C. Supernatants were transferred to a new tube and used for the enzyme assay.
The enhancement ratio is equal to the activity with the compound over the activity without the compound.

α-synuclein [3] = assay: α-synuclein accumulation in brains of V394L homozygous knock-in mice treated with CBE; format: in vivo, mouse; conditions: CBE daily intraperitoneally for 30 days
Protocol: Mice homozygous for the point mutations D409H or V394L and expressing a low level of saposin C in a prosaposin knock-out background, were analyzed for accumulation of α-synuclein in the brain. These mice have been reported to accumulate glucosylceramide in the brain. Mice homozygous for the point mutations V394L only, were analyzed for α-synuclein accumulation with and without CBE treatment. […] Mice were administered CBE daily by interperitonally injection for 30 consequitive days ([…] calculated from the total weight of the mouse) and brains were analyzed by immunohistochemistry for accumulation of α-synuclein.
Brain tissue was frozen and fixed for immunohistochemistry with 4% paraformaldehyde and serial sections were co-labelled with anti-human α-synuclein (ab1903; Abcam, Cambridge, Mass.) and rabbit anti-ubiquitin (ab7780; Abcam, Cambridge, Mass.).

α-galactosidase A = α-galactosidase A (Homo sapiens (Human), UniProt P06280); conditions: healthy volunteers, 50 mg b.i.d. and 150 mg b.i.d.; cited from earlier work
Sequence of α-galactosidase A (P06280 32-429): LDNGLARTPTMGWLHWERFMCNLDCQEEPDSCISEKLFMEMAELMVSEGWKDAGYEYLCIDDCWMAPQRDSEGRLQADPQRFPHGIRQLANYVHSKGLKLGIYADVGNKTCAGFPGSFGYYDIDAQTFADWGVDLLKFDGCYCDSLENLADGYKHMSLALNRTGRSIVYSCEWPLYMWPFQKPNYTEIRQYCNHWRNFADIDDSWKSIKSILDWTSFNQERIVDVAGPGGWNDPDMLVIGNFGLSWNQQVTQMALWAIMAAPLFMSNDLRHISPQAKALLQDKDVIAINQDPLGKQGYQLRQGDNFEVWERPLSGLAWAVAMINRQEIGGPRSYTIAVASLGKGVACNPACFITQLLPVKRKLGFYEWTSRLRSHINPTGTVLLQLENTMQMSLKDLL

GCase [4] = molecular target: T1, GCase; assay: biochemical
[5] = Phase I studies in healthy volunteers: safety and tolerability; format: in vivo, human; conditions: both Phase I studies
Protocol: as §1, with “last dose […]” for “last dose”
Safety was determined by evaluating vital signs, laboratory parameters (serum chemistry, hematology, and urinalysis), physical examination and by recording adverse events during the Treatment Period.
Safety data including laboratory evaluations, physical exams, adverse events, ECG monitoring and vital signs assessments were summarized by treatment group and point of time of collection. Descriptive statistics (arithmetic mean, standard deviation, median, minimum and maximum) were calculated for quantitative safety data as well as for the difference to baseline. […]

α-synuclein [6] = assay: α-synuclein immunohistochemistry in brains of transgenic mice over-expressing human α-synuclein; format: in vivo, mouse
Protocol: 48 transgenic animals (male and female) were allocated to 6 groups (n=8) at an age of 5 to 6 weeks concerning baseline and 3 to 4 weeks, respectively concerning all other treatment groups at treatment start. One group of transgenic animals served as baseline group (5 weeks old) and was sacrificed untreated on day 0. One group of transgenic animals was treated with vehicle.
Mice (ages 3-4 weeks) were treated once daily (orally) at either 2 mg/kg; 20 mg/kg; or 200 mg/kg of IFG tartrate for 3 months. One group also was treated once every other day at 20 mg/kg.
Animals of the baseline group were sacrificed at an age of 5 weeks. All other animals were sacrificed at the end of the 3 months treatment period and blood for preparation of serum and macrophages as well as lung, brain and CSF were extracted. Therefore, all mice were sedated by standard inhalation anesthesia (Isofluran, Baxter). Cerebrospinal fluid was obtained by blunt dissection and exposure of the foramen magnum. Upon exposure, a Pasteur pipette was inserted to the approximate depth of 0.3-1 mm into the foramen magnum. CSF was collected by suctioning and capillary action until flow fully ceases. CSF was immediately frozen and kept at −80° C.
The brains were removed and hemisected. The right hemispheres of all mice were immersion fixed in freshly produced 4% paraformaldehyde/PBS (pH 7.4) for one hour at room temperature. Thereafter brains were transferred to a 15% sucrose PBS solution for 24 hours to ensure cryoprotection. On the next day brains were frozen in liquid isopentane and stored at −80° C. until used for histological investigations. To determine the effects of the IFG-tartrate treatment from 8 animals per group 10 μm-thick cryosections were cut for determination of alpha-synuclein pathology. All organs and tissues mentioned were sampled and from specific brain regions i.e. hippocampus, midbrain, frontal cortex and striatum of one hemibrain were extracted and frozen. The other brain half was processed for histological evaluation.
For evaluation of the number of α-synuclein positive cells and Lewy body like inclusions an immunohistochemical staining was carried out using the monoclonal human alpha-synuclein specific antibody (Alexis®; Cat #804-258-L001), dilution 1:5, detected with secondary Cy2 antibody (Jackson Immunoresearch®). The number of alpha-synuclein positive cells in five different layers, one slice per layer, was counted for evaluation in the whole hippocampus and cortex separately.
Briefly, samples were washed for 10 min with PBS at room temperature, followed by fixing for 30 min at room temperature with 4% paraformaldehyde, followed by washing 2 times for 5 min each with PBS at room temperature. For Proteinase K-treated sections, sections were incubated in PBS containing 10 μg/ml proteinase-K for 10 minutes at room temperature. Next, samples were incubated for 15 min at room temperature with blocking solution to block endogenous peroxidase, followed by two more 5 min washes with PBS. Samples were then incubated for 60 min at room temperature with a blocking reagent to block non-specific binding, followed by two more 5 min washes with PBS. Samples were then incubated with M.O.M. diluent for 5 min at room temperature, followed by incubation with the primary antibody (dilution 1:5 in M.O.M. diluent) for 60 min with at room temperature.
After an hour, samples were washed 2 times for 5 min with PBS at room temperature, and incubated for another 60 min at room temperature with blocking reagent. Following two washes, samples were incubated with secondary Ab Cy 2-Goat Anti-Rat (Dilution 1:200 in M.O.M.) for 60 minutes at room temperature, in the absence of light. Samples were then washed for 5 min with PBS, for 5 min with sterile, molecular-biology grade water, and covered with polyvinyl alcohol.
For evaluation of the α-synuclein immunoreactivity, specialized image analysis software (Image Pro Plus, version 4.5.1.29) was used. […]

GCase [7] = molecular target: T1, GCase; conditions: read-out: IC50 for GCase; printed in synthesis headings
[8] = normal C57BL6 mice, 200 mg/kg/day in drinking water, FIG. 1

OC[C@H]1CNC[C@@H](O)[C@@H]1O [IFG, (3R,4R,5R)-5-(hydroxymethyl)-3,4-piperidinediol]
increase in GCase enzyme levels above baseline (GCase [1]): approximately 3.5 fold | half-life ([2]; oral, repeated doses of 25 to 225 mg, read-out: mean half-lives): 5.14 to 19.9 h | accumulation based on AUC and Cmax comparisons on Day 1 and Day 7 ([2]; repeated doses of 25 to 225 mg): Minimal accumulation | GCase levels in brain (wild-type GCase; [8]): increased | GCase levels in liver (wild-type GCase; [8]): increased | GCase levels in lung (wild-type GCase; [8]): increased | GCase levels in spleen (wild-type GCase; [8]): increased | wild-type GCase activity, dose response (wild-type GCase; separate experiment, mice treated with 0, 1, 10, or 100 mg/kg/day): linear dose-response increase

O[C@H]1[C@H](O)[C@@H](O)[C@@H]2O[C@@H]2[C@@H]1O [CBE, conduritol-β-epoxide]
α-synuclein in the brain (α-synuclein [3]): resulted in accumulation of α-synuclein in the brain

OC[C@H]1NC[C@H](O)[C@@H](O)[C@H]1O [DGJ, 1-deoxygalactonojirimycin]
α-galactosidase A activity in white blood cells (α-galactosidase A): dose-dependent increase

CCCCCCCCc1cn2c(n1)[C@H](O)[C@@H](O)[C@H](O)[C@H]2CO [(5R,6R,7S,8S)-5-Hydroxymethyl-2-n-octyl-5,6,7,8-tetrahydroimidazo[1,2-a]pyridine-6,7,8-triol]
IC50 (GCase [4]): ~0.07 nM

OC[C@H]1CNC[C@@H](O)[C@@H]1O [isofagomine tartrate]
half-life ([2]; single-dose study, oral, read-out: plasma elimination half-life (converted)): 14 h | systemic exposure via the oral route ([2]; healthy volunteers, oral): good systemic exposure | pharmacokinetic behavior and accumulation after 7 days of oral administration ([2]; multiple-dose study, 25, 75, 225 mg daily for seven days): linear with dose, with no unexpected accumulation | plasma AUC and Cmax versus dose ([2]; single-dose study, 8 to 300 mg oral): linearly correlated with administered dose | time at which mean plasma levels peaked ([2]; single-dose study, oral): 3.4 h | serious adverse events [5]: No serious adverse events occurred | tolerability ([5]; all doses): generally well tolerated | α-synuclein positive cell load versus baseline, both regions averaged (α-synuclein [6]; 2 mg/kg daily for 3 months, p>0.05 versus baseline): prevented mice from the age-accompanied increase of pathology | number of α-synuclein immunoreactive cells in the hippocampus versus vehicle-treated controls (α-synuclein [6]; 2 mg/kg once daily orally for 3 months, p<0.05, FIG. 6B): reduced the number of immunoreactive cells in the hippocampus significantly | α-synuclein pathology versus controls at 20 mg dose (α-synuclein [6]; 20 mg/kg daily or every other day for 3 months): not effective versus controls | accumulation of Proteinase K resistant α-synuclein aggregates (α-synuclein [6]; 20 mg/kg, 3 months, single responding animal, FIG. 5): prevents the accumulation of these α-synuclein aggregates | qualitative α-synuclein staining in cortex and hippocampus (α-synuclein [6]; 2 and 20 mg/kg b.w. daily, some of the treated animals, FIGS. 3 and 4): strongly decreased background and decreased α-synuclein positive cell numbers | α-synuclein pathology in the cortex (α-synuclein [6]; oral treatment for 3 months, FIG. 6A): did not reach significance level

CC(C)(C)C#Cc1cn2c(n1)[C@H](OCc1ccccc1)[C@@H](OCc1ccccc1)[C@H](OCc1ccccc1)[C@H]2COCc1ccccc1 [(5R,6R,7S,8S)-6,7,8-Tris(benzyloxy)-5-[(benzyloxy)methyl]-2-(3,3-dimethylbyt-1-ynyl)-5,6,7,8-tetrahydroimidazo[1,2-a]pyridine]
IC50 (GCase [7]): ~1.1 nM

CC(C)(C)CCc1cn2c(n1)[C@H](O)[C@@H](O)[C@H](O)[C@H]2CO [(5R,6R,7S,8S)-5-Hydroxymethyl-2-(3,3-dimethylbutyl)-5,6,7,8-tetrahydro-imidazo[1,2-a]pyridine-6,7,8-triol]
IC50 (GCase [4]): ~0.03 nM
